Read-outs that look alike come from different tables or passages of the source.
Assays:
[1] = system: Key Broadleaf Weed and Crop Species; experiment: Post-Emergent Test II: postemergent herbicidal activity, visual rating after 14 d (Table 7); assay type: in vivo; settings: post-emergence, 336 h; for pest or weed control at 35 g/ha: 35 g ai/ha; for pest or weed control at 70 g/ha: 70 g ai/ha; for pest or weed control at 140 g/ha: 140 g ai/ha
Summary of the method: (§1)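 Post-emergence foliar spray, 187 L/ha, first/second true leaf stage plants in potting mix (pH 6.0-6.8). Rates: top rate and 2-fold serial dilutions to 1/16×. Solvent-blank controls. Readout: visual % kill at 14 d.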

[2] = system: Key Grass and Sedge Weeds as well as Grass Crops; experiment: Post-Emergent Test II: postemergent herbicidal activity, visual rating after 14 d (Table 8); assay type: in vivo; settings: post-emergence, 336 h; for pest or weed control at 35 g/ha: 35 g ai/ha; for pest or weed control at 70 g/ha: 70 g ai/ha; for pest or weed control at 140 g/ha: 140 g ai/ha
Summary of the method: as §1

[3] = lambsquarters (Chenopodium album), read-out: Visual Growth Reduction (%) 14 Days After Application CHEAL
[4] = oilseed rape, canola (Brassica napus), read-out: Visual Growth Reduction (%) 14 Days After Application BRSNN
[5] = redroot pigweed (Amaranthus retroflexus), read-out: Visual Growth Reduction (%) 14 Days After Application AMARE
[6] = sunflower (Helianthus annuus), read-out: Visual Growth Reduction (%) 14 Days After Application HELAN
[7] = velvetleaf (Abutilon theophrasti), read-out: Visual Growth Reduction (%) 14 Days After Application ABUTH
[8] = wild poinsettia (Euphorbia heterophylla), read-out: Visual Growth Reduction (%) 14 Days After Application EPHHL
[9] = barnyardgrass (Echinochloa crus-galli), read-out: Visual Growth Reduction (%) 14 Days After Application ECHCG
[10] = giant foxtail (Setaria faberi), read-out: Visual Growth Reduction (%) 14 Days After Application SETFA
[11] = maize, corn (Zea mays), read-out: Visual Growth Reduction (%) 14 Days After Application ZEAMX
[12] = rice (Oryza sativa), read-out: Visual Growth Reduction (%) 14 Days After Application ORYSA
[13] = wheat, spring (Triticum aestivum), read-out: Visual Growth Reduction (%) 14 Days After Application TRZAS
[14] = yellow nutsedge (Cyperus esculentus), read-out: Visual Growth Reduction (%) 14 Days After Application CYPES

COC(=O)c1nc(-c2cc3c(cc2OC)OC(F)(F)O3)cc(N)c1Cl [Compound 38]
pest or weed control at 35 g/ha [1, 3]: 0 to 29%
pest or weed control at 70 g/ha [1, 3]: 0 to 29%
pest or weed control at 140 g/ha [1, 3]: 0 to 29%
pest or weed control at 35 g/ha [1, 4]: 0 to 29%
pest or weed control at 70 g/ha [1, 4]: 0 to 29%
pest or weed control at 140 g/ha [1, 4]: 0 to 29%
pest or weed control at 35 g/ha [1, 5]: 0 to 29%
pest or weed control at 70 g/ha [1, 5]: 60 to 74%
pest or weed control at 140 g/ha [1, 5]: 60 to 74%
pest or weed control at 35 g/ha [1, 6]: 0 to 29%
pest or weed control at 70 g/ha [1, 6]: 0 to 29%
pest or weed control at 140 g/ha [1, 6]: 60 to 74%
pest or weed control at 35 g/ha [1, 7]: 0 to 29%
pest or weed control at 70 g/ha [1, 7]: 0 to 29%
pest or weed control at 140 g/ha [1, 7]: 0 to 29%
pest or weed control at 35 g/ha [1, 8]: 0 to 29%
pest or weed control at 70 g/ha [1, 8]: 0 to 29%
pest or weed control at 140 g/ha [1, 8]: 0 to 29%
pest or weed control at 35 g/ha [2, 9]: 0 to 29%
pest or weed control at 70 g/ha [2, 9]: 0 to 29%
pest or weed control at 140 g/ha [2, 9]: 0 to 29%
pest or weed control at 35 g/ha [2, 10]: 0 to 29%
pest or weed control at 70 g/ha [2, 10]: 0 to 29%
pest or weed control at 140 g/ha [2, 10]: 0 to 29%
pest or weed control at 35 g/ha [2, 11]: 0 to 29%
pest or weed control at 70 g/ha [2, 11]: 0 to 29%
pest or weed control at 140 g/ha [2, 11]: 0 to 29%
pest or weed control at 35 g/ha [2, 12]: 0 to 29%
pest or weed control at 70 g/ha [2, 12]: 0 to 29%
pest or weed control at 140 g/ha [2, 12]: 0 to 29%
pest or weed control at 35 g/ha [2, 13]: 0 to 29%
pest or weed control at 70 g/ha [2, 13]: 0 to 29%
pest or weed control at 140 g/ha [2, 13]: 0 to 29%
pest or weed control at 35 g/ha [2, 14]: 0 to 29%
pest or weed control at 70 g/ha [2, 14]: 0 to 29%
pest or weed control at 140 g/ha [2, 14]: 0 to 29%

Nc1cc(-c2cc3c(cc2F)OC(F)(F)O3)nc(C(=O)O)c1Cl [Compound 42]
pest or weed control at 35 g/ha [1, 3]: 85 to 94%
pest or weed control at 70 g/ha [1, 3]: 85 to 94%
pest or weed control at 140 g/ha [1, 3]: 85 to 94%
pest or weed control at 35 g/ha [1, 4]: 95 to 100%
pest or weed control at 70 g/ha [1, 4]: 95 to 100%
pest or weed control at 140 g/ha [1, 4]: 95 to 100%
pest or weed control at 35 g/ha [1, 5]: 95 to 100%
pest or weed control at 70 g/ha [1, 5]: 95 to 100%
pest or weed control at 140 g/ha [1, 5]: 95 to 100%
pest or weed control at 35 g/ha [1, 6]: 45 to 59%
pest or weed control at 70 g/ha [1, 6]: 60 to 74%
pest or weed control at 140 g/ha [1, 6]: 75 to 84%
pest or weed control at 35 g/ha [1, 7]: 85 to 94%
pest or weed control at 70 g/ha [1, 7]: 85 to 94%
pest or weed control at 140 g/ha [1, 7]: 85 to 94%
pest or weed control at 35 g/ha [1, 8]: 95 to 100%
pest or weed control at 70 g/ha [1, 8]: 95 to 100%
pest or weed control at 140 g/ha [1, 8]: 95 to 100%
pest or weed control at 35 g/ha [2, 9]: 95 to 100%
pest or weed control at 70 g/ha [2, 9]: 95 to 100%
pest or weed control at 140 g/ha [2, 9]: 95 to 100%
pest or weed control at 35 g/ha [2, 10]: 60 to 74%
pest or weed control at 70 g/ha [2, 10]: 75 to 84%
pest or weed control at 140 g/ha [2, 10]: 75 to 84%
pest or weed control at 35 g/ha [2, 11]: 60 to 74%
pest or weed control at 70 g/ha [2, 11]: 75 to 84%
pest or weed control at 140 g/ha [2, 11]: 75 to 84%
pest or weed control at 35 g/ha [2, 12]: 30 to 44%
pest or weed control at 70 g/ha [2, 12]: 30 to 44%
pest or weed control at 140 g/ha [2, 12]: 30 to 44%
pest or weed control at 35 g/ha [2, 13]: 60 to 74%
pest or weed control at 70 g/ha [2, 13]: 60 to 74%
pest or weed control at 140 g/ha [2, 13]: 60 to 74%
pest or weed control at 35 g/ha [2, 14]: 95 to 100%
pest or weed control at 70 g/ha [2, 14]: 95 to 100%
pest or weed control at 140 g/ha [2, 14]: 95 to 100%

Nc1c(F)c(-c2ccc(F)c3c2OC(F)(F)O3)nc(C(=O)O)c1Cl [Compound 77]
pest or weed control at 35 g/ha [1, 3]: 85 to 94%
pest or weed control at 70 g/ha [1, 3]: 95 to 100%
pest or weed control at 140 g/ha [1, 3]: 95 to 100%
pest or weed control at 35 g/ha [1, 4]: 75 to 84%
pest or weed control at 70 g/ha [1, 4]: 85 to 94%
pest or weed control at 140 g/ha [1, 4]: 95 to 100%
pest or weed control at 35 g/ha [1, 5]: 95 to 100%
pest or weed control at 70 g/ha [1, 5]: 95 to 100%
pest or weed control at 140 g/ha [1, 5]: 95 to 100%
pest or weed control at 35 g/ha [1, 6]: 85 to 94%
pest or weed control at 70 g/ha [1, 6]: 95 to 100%
pest or weed control at 140 g/ha [1, 6]: 95 to 100%
pest or weed control at 35 g/ha [1, 7]: 30 to 44%
pest or weed control at 70 g/ha [1, 7]: 60 to 74%
pest or weed control at 140 g/ha [1, 7]: 75 to 84%
pest or weed control at 35 g/ha [1, 8]: 0 to 29%
pest or weed control at 70 g/ha [1, 8]: 0 to 29%
pest or weed control at 140 g/ha [1, 8]: 0 to 29%
pest or weed control at 35 g/ha [2, 9]: 0 to 29%
pest or weed control at 70 g/ha [2, 9]: 0 to 29%
pest or weed control at 140 g/ha [2, 9]: 0 to 29%
pest or weed control at 35 g/ha [2, 10]: 0 to 29%
pest or weed control at 70 g/ha [2, 10]: 0 to 29%
pest or weed control at 140 g/ha [2, 10]: 0 to 29%
pest or weed control at 35 g/ha [2, 11]: 0 to 29%
pest or weed control at 70 g/ha [2, 11]: 0 to 29%
pest or weed control at 140 g/ha [2, 11]: 0 to 29%
pest or weed control at 35 g/ha [2, 12]: 0 to 29%
pest or weed control at 70 g/ha [2, 12]: 0 to 29%
pest or weed control at 140 g/ha [2, 12]: 0 to 29%
pest or weed control at 35 g/ha [2, 13]: 45 to 59%
pest or weed control at 70 g/ha [2, 13]: 60 to 74%
pest or weed control at 140 g/ha [2, 13]: 60 to 74%
pest or weed control at 35 g/ha [2, 14]: 0 to 29%
pest or weed control at 70 g/ha [2, 14]: 0 to 29%
pest or weed control at 140 g/ha [2, 14]: 0 to 29%
